One block for each compound: values may come before it.
How the values were obtained:
[1] = target: Sodium-dependent dopamine transporter (Homo sapiens, UniProt Q01959); experiment: Selectivity interaction (Eurofins CEREP Diversity Profile (receptors and ion channels)) EUB0000279b SLC6A3; settings: at 10 µM
[2] = target: Proto-oncogene tyrosine-protein kinase ROS (Homo sapiens) (UniProt P08922); settings: at 10 µM
[3] = target: Tyrosine-protein kinase Fer (Homo sapiens) (UniProt P16591); experiment: Selectivity interaction (ActivX KiNativ screen (kinase selectivity in THP-1 cell lysates)) EUB0000639a FER; format: subcellular; settings: lysate, at 0.04 µM
[4] = target: Phosphorylase b kinase gamma catalytic chain, skeletal muscle/heart isoform (Homo sapiens) (UniProt Q16816); experiment: Selectivity interaction (ProQinase) EUB0000171b PHKG1
[5] = target: Casein kinase I isoform alpha (Homo sapiens, UniProt P48729); experiment: Selectivity interaction (KinomeScan (DiscoverX)) EUB0000595a CSNK1A1; settings: at 10 µM
[6] = target: Platelet-derived growth factor receptor beta (Homo sapiens, UniProt P09619); experiment: Selectivity interaction (KinomeScan (DiscoverX)) EUB0000595a PDGFRB; settings: at 10 µM
[7] = target: Cyclin-dependent kinase 13 (Homo sapiens, UniProt Q14004); experiment: Selectivity interaction (KinomeScan (DiscoverX)) EUB0000595a CDK13; settings: at 10 µM
[8] = target: T1, Dual specificity tyrosine-phosphorylation-regulated kinase 2 (Homo sapiens) (UniProt Q92630); experiment: Selectivity interaction (KinomeScan (DiscoverX)) EUB0001049a DYRK2; settings: at 1 µM
T1 sequence (whole entry): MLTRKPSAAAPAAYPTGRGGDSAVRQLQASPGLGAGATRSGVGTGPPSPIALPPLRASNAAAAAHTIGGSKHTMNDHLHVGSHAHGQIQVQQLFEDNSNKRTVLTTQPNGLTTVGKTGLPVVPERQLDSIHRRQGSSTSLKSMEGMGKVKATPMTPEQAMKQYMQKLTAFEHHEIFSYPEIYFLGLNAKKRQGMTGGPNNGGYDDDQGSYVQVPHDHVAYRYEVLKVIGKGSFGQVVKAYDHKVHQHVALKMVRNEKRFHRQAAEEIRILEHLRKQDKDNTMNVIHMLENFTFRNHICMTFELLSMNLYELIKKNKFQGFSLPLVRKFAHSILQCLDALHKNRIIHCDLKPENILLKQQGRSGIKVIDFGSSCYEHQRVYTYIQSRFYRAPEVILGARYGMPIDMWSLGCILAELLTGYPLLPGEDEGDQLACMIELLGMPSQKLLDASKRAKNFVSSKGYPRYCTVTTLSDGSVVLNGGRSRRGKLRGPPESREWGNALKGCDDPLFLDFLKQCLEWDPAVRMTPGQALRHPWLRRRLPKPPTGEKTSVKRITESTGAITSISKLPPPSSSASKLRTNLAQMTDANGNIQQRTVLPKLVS

Aurora kinase B = Aurora kinase B (Homo sapiens, UniProt Q96GD4); experiment: Selectivity interaction (KinomeScan (DiscoverX)) EUB0001049a AURKB; settings: at 1 µM
[9] = target: Serine/threonine-protein kinase B-raf (Homo sapiens) (UniProt P15056); experiment: (§1) Selectivity interaction (KinomeScan (DiscoverX)) EUB0001049a BRAF; settings: at 1 µM
[10] = tested on: Serine/threonine-protein kinase B-raf (Homo sapiens), P15056 [V600E]; experiment: as §1; settings: at 1 µM
[11] = target: Maternal embryonic leucine zipper kinase (Homo sapiens) (UniProt Q14680); experiment: Selectivity interaction (Kinase panel (DSF assay)) EUB0001558a MELK
[12] = target: Tyrosine-protein kinase Fgr (Homo sapiens) (UniProt P09769); experiment: Selectivity interaction (KinomeScan (DiscoverX)) EUB0000045b FGR
[13] = target: Serine/threonine-protein kinase PAK 2 (Homo sapiens) (UniProt Q13177); settings: at 10 µM
[14] = target: Calcium/calmodulin-dependent protein kinase type 1G (Homo sapiens) (UniProt Q96NX5); experiment: Selectivity interaction (KinomeScan (DiscoverX)) EUB0000618a CAMK1G; settings: at 10 µM
[15] = target: T2, Mitogen-activated protein kinase kinase kinase 15 (Homo sapiens) (UniProt Q6ZN16); experiment: Selectivity interaction (KinomeScan (DiscoverX)) EUB0000618a MAP3K15; settings: at 10 µM
T2 sequence (whole entry): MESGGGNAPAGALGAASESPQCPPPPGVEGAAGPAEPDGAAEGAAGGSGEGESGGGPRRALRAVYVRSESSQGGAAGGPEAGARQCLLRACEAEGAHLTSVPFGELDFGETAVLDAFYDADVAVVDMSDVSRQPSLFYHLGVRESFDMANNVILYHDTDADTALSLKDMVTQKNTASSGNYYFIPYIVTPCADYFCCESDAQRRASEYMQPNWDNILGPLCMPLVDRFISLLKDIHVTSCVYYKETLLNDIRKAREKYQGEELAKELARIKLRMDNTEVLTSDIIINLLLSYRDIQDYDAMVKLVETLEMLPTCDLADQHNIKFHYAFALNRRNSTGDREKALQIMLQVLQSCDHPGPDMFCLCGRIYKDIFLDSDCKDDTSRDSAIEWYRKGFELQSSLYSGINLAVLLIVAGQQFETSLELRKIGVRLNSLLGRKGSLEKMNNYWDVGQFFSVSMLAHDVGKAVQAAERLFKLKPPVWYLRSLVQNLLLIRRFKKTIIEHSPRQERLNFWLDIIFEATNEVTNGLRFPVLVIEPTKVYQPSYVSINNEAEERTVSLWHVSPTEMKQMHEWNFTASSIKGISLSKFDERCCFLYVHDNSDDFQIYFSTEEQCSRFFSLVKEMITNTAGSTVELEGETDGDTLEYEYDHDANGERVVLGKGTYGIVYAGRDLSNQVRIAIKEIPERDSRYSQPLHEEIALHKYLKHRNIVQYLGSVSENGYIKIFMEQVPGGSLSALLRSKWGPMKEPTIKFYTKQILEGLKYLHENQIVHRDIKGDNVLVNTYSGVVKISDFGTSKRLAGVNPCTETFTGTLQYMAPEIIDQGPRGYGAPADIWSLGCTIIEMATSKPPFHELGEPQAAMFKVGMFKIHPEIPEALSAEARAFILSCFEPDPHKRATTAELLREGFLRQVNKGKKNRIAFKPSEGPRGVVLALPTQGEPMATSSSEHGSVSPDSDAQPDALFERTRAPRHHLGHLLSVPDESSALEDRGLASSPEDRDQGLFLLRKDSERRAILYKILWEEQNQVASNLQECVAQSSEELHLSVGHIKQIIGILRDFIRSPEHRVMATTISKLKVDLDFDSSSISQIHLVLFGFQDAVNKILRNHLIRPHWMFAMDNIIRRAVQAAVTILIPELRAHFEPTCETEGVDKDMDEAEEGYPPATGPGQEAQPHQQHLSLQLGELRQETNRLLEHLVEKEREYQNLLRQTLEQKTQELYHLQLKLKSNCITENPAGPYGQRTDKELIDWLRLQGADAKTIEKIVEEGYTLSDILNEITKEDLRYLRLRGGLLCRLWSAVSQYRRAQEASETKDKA

Chain of Tyrosine-protein kinase Fgr (Homo sapiens) (P09769 2-529 limits assumed): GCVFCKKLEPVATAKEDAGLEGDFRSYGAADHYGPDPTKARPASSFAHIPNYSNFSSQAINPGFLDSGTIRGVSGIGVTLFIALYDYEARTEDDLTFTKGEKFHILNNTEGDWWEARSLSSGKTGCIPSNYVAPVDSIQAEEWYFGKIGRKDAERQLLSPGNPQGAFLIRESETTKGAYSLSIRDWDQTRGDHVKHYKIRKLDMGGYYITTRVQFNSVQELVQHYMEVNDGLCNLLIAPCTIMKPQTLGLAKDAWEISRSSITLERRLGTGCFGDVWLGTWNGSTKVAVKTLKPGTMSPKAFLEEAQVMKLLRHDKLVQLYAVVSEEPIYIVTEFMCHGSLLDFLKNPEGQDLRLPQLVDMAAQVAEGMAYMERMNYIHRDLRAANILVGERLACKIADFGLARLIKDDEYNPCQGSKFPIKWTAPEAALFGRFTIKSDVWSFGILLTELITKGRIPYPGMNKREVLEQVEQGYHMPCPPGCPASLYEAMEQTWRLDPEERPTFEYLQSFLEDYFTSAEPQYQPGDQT
Chain of Phosphorylase b kinase gamma catalytic chain, skeletal muscle/heart isoform (Homo sapiens) (Q16816 whole entry, looked up, canonical isoform): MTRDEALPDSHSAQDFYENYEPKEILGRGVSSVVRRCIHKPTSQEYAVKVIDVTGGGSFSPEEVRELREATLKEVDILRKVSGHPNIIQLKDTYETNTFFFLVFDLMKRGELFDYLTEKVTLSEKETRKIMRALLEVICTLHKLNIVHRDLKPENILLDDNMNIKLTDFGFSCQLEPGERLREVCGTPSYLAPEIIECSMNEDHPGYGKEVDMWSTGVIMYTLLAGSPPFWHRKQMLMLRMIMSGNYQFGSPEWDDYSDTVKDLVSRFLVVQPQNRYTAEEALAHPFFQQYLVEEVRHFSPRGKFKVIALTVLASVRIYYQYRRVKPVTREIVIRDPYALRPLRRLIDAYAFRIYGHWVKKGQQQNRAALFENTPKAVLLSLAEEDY
Chain of Tyrosine-protein kinase Fer (Homo sapiens) (P16591 whole entry, looked up, canonical isoform): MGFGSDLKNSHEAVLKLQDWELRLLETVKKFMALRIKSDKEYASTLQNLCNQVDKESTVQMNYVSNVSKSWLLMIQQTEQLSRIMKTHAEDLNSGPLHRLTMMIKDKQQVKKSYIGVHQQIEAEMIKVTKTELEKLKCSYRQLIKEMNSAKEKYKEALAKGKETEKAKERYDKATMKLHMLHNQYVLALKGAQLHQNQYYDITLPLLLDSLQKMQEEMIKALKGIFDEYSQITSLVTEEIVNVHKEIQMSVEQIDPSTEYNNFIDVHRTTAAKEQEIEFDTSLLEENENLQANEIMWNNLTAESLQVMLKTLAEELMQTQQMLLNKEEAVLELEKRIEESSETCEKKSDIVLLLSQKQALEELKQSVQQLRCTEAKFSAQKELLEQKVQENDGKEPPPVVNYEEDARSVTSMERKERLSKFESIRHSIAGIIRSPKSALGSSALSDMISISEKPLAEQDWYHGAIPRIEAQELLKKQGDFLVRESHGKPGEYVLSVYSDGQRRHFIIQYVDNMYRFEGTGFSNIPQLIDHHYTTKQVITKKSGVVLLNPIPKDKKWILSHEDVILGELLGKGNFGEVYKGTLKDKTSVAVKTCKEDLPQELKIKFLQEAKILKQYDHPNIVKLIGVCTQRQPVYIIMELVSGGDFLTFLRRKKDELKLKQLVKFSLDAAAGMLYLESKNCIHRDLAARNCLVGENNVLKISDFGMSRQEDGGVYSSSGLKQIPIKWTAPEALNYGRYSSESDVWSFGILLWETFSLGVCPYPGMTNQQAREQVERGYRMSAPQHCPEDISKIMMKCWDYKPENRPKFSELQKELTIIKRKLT
Chain of Sodium-dependent dopamine transporter (Q01959 whole entry): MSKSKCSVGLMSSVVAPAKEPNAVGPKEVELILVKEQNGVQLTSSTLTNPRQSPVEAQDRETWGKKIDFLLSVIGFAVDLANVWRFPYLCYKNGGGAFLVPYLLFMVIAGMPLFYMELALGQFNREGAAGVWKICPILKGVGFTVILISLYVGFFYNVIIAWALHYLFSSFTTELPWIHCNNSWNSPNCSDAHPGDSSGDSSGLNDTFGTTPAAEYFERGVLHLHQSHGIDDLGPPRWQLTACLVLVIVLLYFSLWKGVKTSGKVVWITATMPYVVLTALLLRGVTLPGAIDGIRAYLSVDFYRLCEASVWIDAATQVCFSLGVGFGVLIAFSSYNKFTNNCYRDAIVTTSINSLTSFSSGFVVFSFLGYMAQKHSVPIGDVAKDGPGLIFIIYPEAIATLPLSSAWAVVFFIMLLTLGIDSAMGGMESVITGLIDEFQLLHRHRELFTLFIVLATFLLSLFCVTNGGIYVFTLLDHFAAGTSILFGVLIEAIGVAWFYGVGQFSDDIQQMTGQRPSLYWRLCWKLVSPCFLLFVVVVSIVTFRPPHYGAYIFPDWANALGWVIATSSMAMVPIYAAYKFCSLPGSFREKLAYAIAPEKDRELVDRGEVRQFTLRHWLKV
Chain of Platelet-derived growth factor receptor beta (P09619 whole entry): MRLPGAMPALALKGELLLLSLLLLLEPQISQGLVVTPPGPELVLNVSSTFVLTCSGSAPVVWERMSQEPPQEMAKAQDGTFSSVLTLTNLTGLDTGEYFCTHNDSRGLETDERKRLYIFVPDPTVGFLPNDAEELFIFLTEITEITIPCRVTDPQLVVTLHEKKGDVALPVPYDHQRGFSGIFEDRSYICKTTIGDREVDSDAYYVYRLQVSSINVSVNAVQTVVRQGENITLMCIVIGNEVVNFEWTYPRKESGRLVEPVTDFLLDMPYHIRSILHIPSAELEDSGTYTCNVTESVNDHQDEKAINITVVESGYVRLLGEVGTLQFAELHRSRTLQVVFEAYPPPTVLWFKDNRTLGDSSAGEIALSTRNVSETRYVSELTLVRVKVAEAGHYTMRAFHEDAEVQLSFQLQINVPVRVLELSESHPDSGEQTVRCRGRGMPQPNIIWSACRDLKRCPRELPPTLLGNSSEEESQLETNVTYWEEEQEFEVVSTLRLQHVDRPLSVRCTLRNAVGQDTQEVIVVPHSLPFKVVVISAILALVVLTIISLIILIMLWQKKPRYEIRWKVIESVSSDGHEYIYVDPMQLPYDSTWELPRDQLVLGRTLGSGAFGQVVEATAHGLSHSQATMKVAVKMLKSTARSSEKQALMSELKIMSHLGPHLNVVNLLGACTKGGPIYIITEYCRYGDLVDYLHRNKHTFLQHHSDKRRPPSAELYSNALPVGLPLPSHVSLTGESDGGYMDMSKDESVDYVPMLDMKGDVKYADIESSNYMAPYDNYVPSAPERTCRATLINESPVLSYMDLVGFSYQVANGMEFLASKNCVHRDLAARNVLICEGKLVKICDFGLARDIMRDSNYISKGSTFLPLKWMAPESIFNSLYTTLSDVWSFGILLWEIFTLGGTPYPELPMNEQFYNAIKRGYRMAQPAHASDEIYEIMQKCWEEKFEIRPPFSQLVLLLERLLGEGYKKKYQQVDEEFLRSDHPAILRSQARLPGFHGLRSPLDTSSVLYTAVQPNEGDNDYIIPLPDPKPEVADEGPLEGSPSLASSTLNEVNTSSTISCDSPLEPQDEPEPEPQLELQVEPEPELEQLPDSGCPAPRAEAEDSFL
Chain of Maternal embryonic leucine zipper kinase (Homo sapiens) (Q14680 whole entry, looked up): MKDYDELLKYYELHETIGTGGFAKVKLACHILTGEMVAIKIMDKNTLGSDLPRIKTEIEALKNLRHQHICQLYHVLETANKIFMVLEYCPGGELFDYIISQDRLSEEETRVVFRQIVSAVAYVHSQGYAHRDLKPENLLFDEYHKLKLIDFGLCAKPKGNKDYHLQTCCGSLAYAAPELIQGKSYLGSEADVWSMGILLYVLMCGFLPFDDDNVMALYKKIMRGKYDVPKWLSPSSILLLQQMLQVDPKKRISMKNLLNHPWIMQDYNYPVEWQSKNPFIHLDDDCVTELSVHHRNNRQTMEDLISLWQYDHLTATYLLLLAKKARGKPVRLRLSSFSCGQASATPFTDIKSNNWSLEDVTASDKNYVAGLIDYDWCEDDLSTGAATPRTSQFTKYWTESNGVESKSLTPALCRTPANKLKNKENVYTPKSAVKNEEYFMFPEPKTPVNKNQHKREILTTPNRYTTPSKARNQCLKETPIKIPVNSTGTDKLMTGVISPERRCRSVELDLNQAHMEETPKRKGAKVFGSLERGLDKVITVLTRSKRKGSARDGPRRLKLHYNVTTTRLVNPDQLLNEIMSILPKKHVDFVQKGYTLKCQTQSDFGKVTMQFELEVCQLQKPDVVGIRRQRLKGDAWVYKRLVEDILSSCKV
Chain of Calcium/calmodulin-dependent protein kinase type 1G (Homo sapiens) (Q96NX5 whole entry): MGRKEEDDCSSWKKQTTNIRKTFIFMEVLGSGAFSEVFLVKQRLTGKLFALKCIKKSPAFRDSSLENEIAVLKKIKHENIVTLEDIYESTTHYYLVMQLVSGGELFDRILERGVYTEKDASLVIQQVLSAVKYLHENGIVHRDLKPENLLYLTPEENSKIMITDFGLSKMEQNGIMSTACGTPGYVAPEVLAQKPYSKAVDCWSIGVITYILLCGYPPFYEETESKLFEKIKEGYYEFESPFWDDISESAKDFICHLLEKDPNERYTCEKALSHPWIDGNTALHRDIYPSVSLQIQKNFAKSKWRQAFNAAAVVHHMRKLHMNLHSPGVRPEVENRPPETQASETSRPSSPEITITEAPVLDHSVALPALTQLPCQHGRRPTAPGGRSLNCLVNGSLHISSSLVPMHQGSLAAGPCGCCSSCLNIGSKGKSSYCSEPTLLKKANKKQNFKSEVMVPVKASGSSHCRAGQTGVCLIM
Chain of Aurora kinase B (Q96GD4 whole entry): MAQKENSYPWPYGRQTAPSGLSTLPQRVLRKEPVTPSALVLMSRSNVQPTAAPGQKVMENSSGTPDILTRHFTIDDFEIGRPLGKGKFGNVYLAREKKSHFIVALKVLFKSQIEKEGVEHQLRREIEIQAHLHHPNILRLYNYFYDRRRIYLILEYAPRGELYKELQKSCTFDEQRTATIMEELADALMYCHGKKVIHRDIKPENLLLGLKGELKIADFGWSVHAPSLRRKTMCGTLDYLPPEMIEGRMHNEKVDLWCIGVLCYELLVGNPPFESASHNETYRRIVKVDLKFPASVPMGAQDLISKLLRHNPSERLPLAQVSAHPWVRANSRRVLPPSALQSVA

% of control [1]: 80%
Structure (SMILES): CC(=O)c1cc(-c2ccccc2OCC2CC2)c2ncccn12

% of control [2]: 100%
Structure (SMILES): CCN(CC)CCCCNc1ncc2cc(-c3cc(OC)cc(OC)c3)c(NC(=O)NC(C)(C)C)nc2n1

% of inhibition [3]: -11.5%
Structure (SMILES): CC[C@@H]1[C@H](F)C(=O)N[C@@H]1COc1nccc2cc(C(N)=O)c(OC)cc12 [ZIMLOVISERTIB]

% of control ([4]; at 1 µM): 80%
% of control ([4]; at 5 µM): 44%
Structure (SMILES): C=CC(=O)Nc1cccc(C(=O)Nc2ccc(Nc3cc(-c4[nH]c(SC)nc4C)ccn3)cc2)c1

Structure (SMILES): COCC(=O)NC/C=C/c1ccc2ncnc(Nc3ccc(Oc4ccc(C)nc4)c(C)c3)c2c1 [CP-724714]
% of control [5]: 100%
% of control [6]: 46%
% of control [7]: 100%

Structure (SMILES): COc1cc(Nc2nc(C)cc(-c3cnn4nc(OC)ccc34)n2)cc(C(F)(F)F)c1
% of control [8]: 79%
% of control (Aurora kinase B): 85%
% of control [9]: 100%
% of control [10]: 100%

Structure (SMILES): CC(C)(O)[C@H](F)CN1Cc2cc(NC(=O)c3cnn4cccnc34)c(N3CCOCC3)cc2C1=O
dTM [11]: 0.9 K

Structure (SMILES): C=CC(=O)Nc1cc(-n2c(=O)ccc3cnc4ccc(-c5ccc(NS(C)(=O)=O)cc5)cc4c32)ccc1C
% of control ([12]; at 1 µM): 72%
% of control ([12]; at 10 µM): 79%

Structure (SMILES): Cc1cc([C@@H](C)Nc2ccccc2C(=O)O)c2nc(N3CCOCC3)cc(=O)n2c1 [AZD-6482]
% of control [13]: 100%

Structure (SMILES): O[C@H]1CC[C@H](Nc2ncc3nc(Nc4c(F)cc(F)cc4F)n([C@H]4CCOC4)c3n2)CC1
% of control [14]: 100%
% of control [15]: 100%
